Residues, ends and D or L forms follow the SMILES beside them.
What was measured:
[1] = molecular target: T1, GST-BIR3 fusion containing amino acids 248-358 from XIAP (Homo sapiens, UniProt P98170); test: XIAP BIR3 Smac Elisa; format: binding; conditions: concentration which displaces half of GST-BIR3 signal, IAP not given
T1 construct: a GST-BIR3 fusion containing amino acids 248-358 from XIAP was used
Description: (§1) In order to measure the ability of the inventive compounds to bind the BIR3 peptide binding pocket, a solution phase assay on the FMAT or ELISA technology platform is utilized.
(§2) Compounds are incubated with GST-BIR3 fusion protein and biotinylated SMAC peptide (AVPFAQK) in stretavidin-coated 96-well plates. For XIAP BIR3 Smac Elisa, a GST-BIR3 fusion containing amino acids 248-358 from XIAP was used. For CIAP1 BIR3 Smac Elisa, a GST-BIR3 fusion containing amino acids 259-364 from CIAP1 was used. Following a 30-minute incubation, wells are extensively washed. The remaining GST-BIR3 fusion protein is monitored by ELISA assay involving first, incubation with goat anti-GST antibodies followed by washing and incubation with alkaline phosphatase conjugated anti-goat antibodies. Signal is amplified using Attophos (Promega) and read with Cytoflour Ex 450 nm/40 and Em 580 nm. IC50s correspond to concentration of compound which displaces half of GST-BIR3 signal. The IC50 for non-biotinylated Smac is 400 nM.

[2] = molecular target: T2, GST-BIR3 fusion containing amino acids 259-364 from CIAP1 (Homo sapiens, UniProt Q13490); test: CIAP1 BIR3 Smac Elisa; format: binding; conditions: concentration which displaces half of GST-BIR3 signal, IAP not given
T2 construct: a GST-BIR3 fusion containing amino acids 259-364 from CIAP1 was used
T2 sequence (Q13490 259-364): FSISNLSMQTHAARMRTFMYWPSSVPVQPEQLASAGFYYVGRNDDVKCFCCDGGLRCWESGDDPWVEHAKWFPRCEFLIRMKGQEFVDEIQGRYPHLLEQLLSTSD
Description: as §1, §2

[3] = system: GST-BIR3 fusion protein (BIR3 peptide binding pocket); test: FMAT solution phase assay: competition of GST-BIR3 off Smac peptide beads
Description: as §1
Biotinylated Smac 7-mer peptide (AVPIAQK, lysine ε-amino group is biotinylated) is immobilized on streptavidin coated beads. GST-BIR3 fusion protein is precipitated with FMAT beads and is detected using fluorescent tagged anti-GST antibodies. […] The IC50 for non-biotinylated Smac is 400 nM.

T1 sequence (P98170 248-358): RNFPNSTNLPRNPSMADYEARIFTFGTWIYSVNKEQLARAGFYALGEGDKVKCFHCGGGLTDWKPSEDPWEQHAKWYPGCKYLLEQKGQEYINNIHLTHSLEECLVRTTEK

- IC50 [1]: 400 nM
- IC50 [2]: 400 nM
- competing GST-BIR3 off the FMAT beads ([3]; FIG. 2): highly effective
- IC50 ([3]; FMAT, displacement of GST-BIR3 from biotinylated Smac 7-mer peptide (AVPIAQK) beads): 400 nM
SMILES: CC[C@H](C)[C@H](NC(=O)[C@@H]1CCCN1C(=O)[C@@H](NC(=O)[C@H](C)N)C(C)C)C(=O)N[C@@H](C)C(=O)N[C@@H](CCC(N)=O)C(=O)N[C@@H](CCCCN)C(=O)O [non-biotinylated Smac] (H-AVPIAQK-OH; N-terminus and C-terminus assumed)

Source: patent US7989441B2, “Organic compounds” (Novartis AG, priority 2005, dated 2011)
